From US7238795B2, “Nucleic acid binding compounds containing pyrazolo[3,4-d]pyrimidine analogues of purin-2,6-diamine and their uses” (Roche Molecular Systems, Inc., priority 2000, dated 2007)
Several values for one entry are separate records, joined by “and”; a condition that tells them apart may be missing. Equal entries are not always repeated. Where two headings read alike, the source gives them in different places.

Assays:
[1] = Half-life of the N-glycosylic bond in HCl, followed UV-spectrophotometrically and by HPLC; type: physicochemical; conditions: 25°; for half-life: read-out: Half-life τ
Experimental: Next, the half-lives of the N-glycosylic bonds of compounds 2a,b in acidic medium were measured and compared with that of compound 1. […]

[2] = system: complementary oligodeoxyribonucleotide strand (antiparallel duplex); conditions: data published so far; n^2Ad instead of dA; cited from earlier work
[3] = Deprotection (alkaline hydrolysis) of base-protected nucleosides in aqueous ammonia, HPLC monitoring; conditions: for time of complete deprotection: conc. ammonia, 40°
[4] = biological target: T1, adenosine deaminase (ADA) (Homo sapiens, UniProt P00813); test: Deamination by adenosine deaminase, followed UV-spectrophotometrically; type: biochemical; conditions: compared with purine nucleoside 1; even at high enzyme concentrations
T1 sequence (P00813 1-363): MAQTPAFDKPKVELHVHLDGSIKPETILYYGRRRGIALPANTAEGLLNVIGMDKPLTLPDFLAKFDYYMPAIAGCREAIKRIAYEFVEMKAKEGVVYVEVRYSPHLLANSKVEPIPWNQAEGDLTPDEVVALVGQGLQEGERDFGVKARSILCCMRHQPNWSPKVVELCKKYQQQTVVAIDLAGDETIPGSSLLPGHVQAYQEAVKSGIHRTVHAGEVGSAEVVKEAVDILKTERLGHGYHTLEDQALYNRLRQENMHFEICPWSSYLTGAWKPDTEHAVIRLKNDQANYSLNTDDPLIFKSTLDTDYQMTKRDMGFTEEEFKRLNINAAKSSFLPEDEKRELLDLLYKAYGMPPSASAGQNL
Source text: The reaction was followed UV-spectrophoto-metrically (FIG. 1a).
The time-dependent spectra show two isosbestic points (λ=234 nm and 267 nm) indicating the conversion of the starting material into only one reaction product. The deamination of 2a occurs much slower than that of the purine nucleoside 1.

[5] = system: complementary oligodeoxyribonucleotide strand (antiparallel duplex); test: Tm values and thermodynamic data of antiparallel DNA-DNA duplexes (UV melting curves, Meltwin 3.0); type: binding
[6] = buffer
[7] = 25% aq. NH3, 40°, HPLC-monitoring

For `Nc1nc(N)c2ncn([C@H]3C[C@H](O)[C@@H](CO)O3)c2n1` [compound 1, 2-amino-2′-deoxyadenosine, reference compound], the half-life ([1]; 0.5 N HCl, Stable = within 4 h) is listed as 6 min and the “Tm-increase of DNA duplex” value [2] is listed as 1-2 °C.
With `CC(C)C(=O)Nc1nc(N)c2c(Br)nn([C@H]3C[C@H](O)[C@@H](CO)O3)c2n1` [compound 14, 4-Amino-3-bromo-1-(2-deoxy-β-D-erythro-pentofuranosyl)-6-[(2-methylpropanoyl)amino]-1H-pyrazolo[3,4-d]pyrimidine] the “half-life of alkaline hydrolysis” value ([3]; 25% aq. NH3 at 40°) was 20.5 min.
With `CCCCN(C=Nc1nc(N=CN(CCCC)CCCC)c2c(Br)nn([C@H]3C[C@H](O)[C@@H](CO)O3)c2n1)CCCC` [8b, N^4,N^6-Bis((di-n-butylamino)methylene)-3-bromo-1-[2-deoxy-β-D-erythro-pentofuranosyl]-1H-pyrazolo[3,4-d]-pyrimidin-4,6-diamine] the “time of complete deprotection” value ([3]; HPLC-monitoring at 260 nm) was 450 min.
With `O=C(COc1ccccc1)Nc1nc(NC(=O)COc2ccccc2)c2cnn([C@H]3C[C@H](O)[C@@H](CO)O3)c2n1` [5a, N^4,N^6-Bis(phenoxyacetyl)-1-[2-deoxy-β-D-erythro-pentofuranosyl]-1H-pyrazolo[3,4-d]-pyrimidin-4,6-diamine] the “removal of the first pac-group” value [3, 7] was no more than 5 min, the “removal of the second pac-group” value [3, 7] was 20 min and the complete deprotection ([3]; 25% aq. NH3 at r.t.) was “less than one hour”.
For `Nc1nc(N)c2c(Br)nn([C@H]3C[C@H](O)[C@@H](CO)O3)c2n1` [2b, 3-Bromo-1-[2-deoxy-β-D-erythro-pentofuranosyl]-1H-pyrazolo[3,4-d]-pyrimidin-4,6-diamine], the “Half-life τ” value ([1]; 0.5 N HCl, Stable = within 4 h) was “Stable^b)”, the half-life ([1]; 2 N HCl) was 87 min and the “deamination by adenosine deaminase” value [4] was “not deaminated”. For the same molecule, the “Tm increase (stabilization) per modified residue” value ([5]; text Example 2, standard duplex 102•103) was 4.5 ° and 4-5 ° and the “Tm-value of duplex 102•103 with six residues replacing dA” value ([5]; text b259) was 75 °.
In the case of `Nc1nc(N)c2c(I)nn([C@H]3C[C@H](O)[C@@H](CO)O3)c2n1` [2c, 1-(2-Deoxy-β-D-erythro-pentofuranosyl)-3-iodo-1H-pyrazolo[3,4-d]-pyrimidin-4,6-diamine], the “Half-life τ” value ([1]; Table 8, 0.5 N HCl, stable = within 3 h) is reported as “stable^b)” and the half-life ([1]; Table 8, 2 N HCl) is reported as 61 min.
With `CC(C)C(=O)Nc1nc(NC(=O)C(C)C)c2c(Br)nn([C@H]3C[C@H](O)[C@@H](CO)O3)c2n1` [13a, 3-Bromo-1-(2-deoxy-β-D-erythro-pentofuranosyl)-4,6-[(2-methylpropanoyl)amino]-1H-pyrazolo[3,4-d]pyrimidine] the “half-life of alkaline hydrolysis” value [6] was 4.5 min.
With `CCCCN(C=Nc1nc(N=CN(CCCC)CCCC)c2cnn([C@H]3C[C@H](O)[C@@H](CO)O3)c2n1)CCCC` [8a, N^4,N^6-Bis((di-n-butylamino)methylene)-1-[2-deoxy-β-D-erythro-pentofuranosyl]-1H-pyrazolo[3,4-d]-pyrimidin-4,6-diamine] the “time of complete deprotection” value ([3]; HPLC-monitoring at 260 nm) was 440 min.
For `O=C(Nc1nc(NC(=O)c2ccccc2)c2c(I)nn([C@H]3C[C@H](O)[C@@H](CO)O3)c2n1)c1ccccc1` [13b, 1-[2-Deoxy-β-D-erythro-pentofuranosyl]-4,6-dibenzamido-3-iodo-1H-pyrazolo[3,4-d]-pyrimidine], the “time for complete deprotection” value ([3]; 25% aq. NH3, 40° C., HPLC-monitoring at 260 nm) was 450 min.
With `O=C(Nc1nc(NC(=O)c2ccccc2)c2cnn([C@H]3C[C@H](O)[C@@H](CO)O3)c2n1)c1ccccc1` [5b, N^4,N^6-Bis(benzoyl)-1-[2-deoxy-β-D-erythro-pentofuranosyl]-1H-pyrazolo[3,4-d]-pyrimidin-4,6-diamine] the “complete removal of the two benzoyl groups” value ([3]; 25% aq. NH3, 40°, HPLC monitoring) was 8 to 9 h.
